Test results from paper PMC12097015, “Development of MDM2‐Targeting PROTAC for Advancing Bone Regeneration” (Advanced Science, 2025).

What was measured:
MDM2 = MDM2 (Homo sapiens, UniProt Q00987); test: MDM2 degradation by western blot in hBMSCs; assay type: cell-based; parameters: endogenous in cells; host or cells: hBMSCs
Description: Human Bone Marrow‐derived Mesenchymal Stem Cells (hBMSCs) were provided by Professor Lee's laboratory, and cells from passages four to nine were used for all experiments. hBMSCs were cultured in alpha‐minimum essential medium (Welgene, LM008‐01) supplemented with 10% Fetal Bovine Serum (FBS) (Gibco, US origin, 16000–044) and 1% penicillin/streptomycin (Gibco, 15140‐122).
After discarding the medium and washing the cells twice with cold dPBS, the cells were collected using a scraper and lysed using RIPA buffer (GenDEPOT, R4200‐010) containing protease and phosphatase inhibitors (GenDEPOT, P3200‐001). The collected samples were centrifuged at 13 200 rpm for 10 min at 4 °C, and the supernatant containing total protein was collected. SDS‐PAGE gels (10–12%) were prepared, and protein samples were mixed with 5X loading buffer containing reducing agent (Biosesang, S2002) and heated at 98 °C for 5 min. Equal amounts of protein samples were loaded onto a gel, separated by electrophoresis, and transferred onto nitrocellulose membranes using a Dry Transfer Stacks Kit (Invitrogen, IB23001). The membrane was blocked with 5% nonfat milk in 1X TBST for 1 h at room temperature to prevent nonspecific binding. The membranes were incubated with primary antibodies specific to the target proteins overnight at 4 °C with gentle shaking. The next day, the membrane was washed three times with TBST at 10 min intervals to remove unbound primary antibodies. The membranes were incubated with secondary antibodies (anti‐rabbit and anti‐mouse) conjugated to horseradish peroxidase (HRP) for 1 h at room temperature. The membrane was washed three times with 1X TBST at 10 min intervals to remove unbound secondary antibodies. After washing, a chemiluminescent substrate (ECL, Millipore, WBULS0100) was applied to the membrane to visualize protein bands using a chemiluminescence detector (for the antibodies used, see Table S2, Supporting Information).
The DC50 and Dmax values were calculated by western blot band quantification according to compound concentrations. The quantification value was normalized to the value relative to the untreated group and calculated using the sigmoidal dose‐response (variable slope) equation in GraphPad Prism.

[1] = tested on: OVX-induced osteoporosis model; test: Ovariectomy (OVX)-induced osteoporosis mouse model; assay type: in vivo, C57BL6 mice; details: OVX mice
Description: -Establishment of Ovariectomized Mice Model: The experimental protocols were approved by the IACUC (Approval code: IACUC230118) at the CHA Laboratory Animal Research Center. The mice were handled in compliance with the Guidelines for the Care and Use of Animals at the institution. Female C57BL6 mice (seven weeks old (n = 57)) were randomly divided into six groups (n = 8-10): […] All surgeries and pump implantations were performed under aseptic conditions. Mice were anesthetized before removing both sides of the ovaries. In the fourth week following surgery, an Alzet osmotic pump (Durect Corp, #1004) was implanted in the mice. […] Images were acquired at an effective pixel size of 50 μm (130 kV and 60 μA radiation source; 1.0 mm aluminum filter). Subsequently, 3D images were reconstructed from the 2D X-ray projections by implementing the Feldkamp algorithm, and appropriate image corrections, including ring artifact correction, beam hardening correction, and fine-tuning, were processed using NRecon software (SkyScan 1173, Belgium). The dynamic image range (contrast limits) was determined at 0-0.3 in units of attenuation coefficient and was applied to all datasets for optimum image contrast. After acquisition and reconstruction of the datasets, images were first reoriented on each 3D plane using DataViewer software (SkyScan 1173, Belgium) to align the long axis of the femur parallel to the coronal and sagittal planes. Next, 3D morphometric analyses of the distal femur and body of the lumbar vertebrae were performed using CT-Analyzer software (SkyScan 1173, Belgium). Regarding the region of interest (ROI), this work analyzed the 1.5 mm […] trabecular bone of the distal femur metaphysis, excluding the growth plate. The ROIs were delineated using a freehand drawing tool while maintaining a […] clearance from the endosteal surface. […] A global threshold of 60 (1.01573 g cm^-3) was applied to all scans to extract a physiologically accurate representation of the trabecular bone phase. […] All quantitative and structural parameters followed the nomenclature and units recommended by the American Society for Bone and Mineral Research (ASBMR) Histomorphometry Nomenclature Committee. After data quantification,^[ [26b] ^] 3D rendered images were generated to visualize the analyzed regions using the marching cube method. -H&E staining: Following decalcification, the specimens were fixed in paraffin and longitudinally sliced to a thickness of 3 μm using a microtome. Subsequently, each sample was affixed to a slide and exposed to a temperature of 55 °C. […] The slides underwent a 1 min wash in flowing purified water and immersed in Harris hematoxylin-I for 5 min, followed by a 1 min wash under flowing tap water. Sections were briefly immersed in ammonia water for 30 s and washed with tap water for 3 min. Subsequently, the sections were stained with Eosin Y for 2 min and 30 s, followed by gradual drying in 95%-100% ethanol. Any residual stain was rinsed with distilled water and each section was mounted. -Masson's trichrome staining: Following deparaffinization and hydration, the sections underwent treatment with a mordant containing a 5% iron alum solution in a dry oven at 56 °C for 30 min. Sections were washed under running tap water for 5-6 min to remove picric acid. Sections were stained with Weigert's iron hematoxylin solution for 10 min, followed by rinsing with purified water. A 5 min staining with Biebrich scarlet-acid fuchsin solution ensued, succeeded by washing with purified water. The sections were immersed in a phosphomolybdic-phosphotungstic acid solution for 5 min. After discarding the solution, the sections were washed with distilled water. Differentiation was performed in 1% glacial acetic acid solution for 3 min. The solution was discarded, and the remaining stain was washed with distilled water.

[2] = 0.5 mg kg^−1, osmotic pump 28 days
[3] = 0.5 mg kg^−1, same concentration of Nutlin‐3

Chain of MDM2 (Q00987 whole entry): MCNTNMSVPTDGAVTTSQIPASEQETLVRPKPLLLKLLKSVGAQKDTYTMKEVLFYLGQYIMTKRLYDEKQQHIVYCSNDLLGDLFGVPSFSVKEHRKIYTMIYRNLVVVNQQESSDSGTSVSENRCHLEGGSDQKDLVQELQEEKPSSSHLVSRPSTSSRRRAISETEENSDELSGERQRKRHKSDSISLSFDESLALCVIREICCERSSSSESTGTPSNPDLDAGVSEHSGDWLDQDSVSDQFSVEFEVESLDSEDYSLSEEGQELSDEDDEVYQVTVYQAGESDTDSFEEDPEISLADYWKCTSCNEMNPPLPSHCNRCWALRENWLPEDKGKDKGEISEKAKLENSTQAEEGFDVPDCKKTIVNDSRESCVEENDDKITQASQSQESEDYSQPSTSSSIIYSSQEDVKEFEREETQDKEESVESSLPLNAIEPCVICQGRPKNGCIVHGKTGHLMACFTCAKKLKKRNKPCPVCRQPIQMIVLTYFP

COc1ccc(C2=N[C@H](c3ccc(Cl)cc3)[C@H](c3ccc(Cl)cc3)N2C(=O)N2CCN(CC(=O)NCCCCCCCCOc3cccc4c3C(=O)N(C3CCC(=O)NC3=O)C4=O)C(=O)C2)c(OC(C)C)c1 (stereo in doubt) [CL144]
MDM2 degradation, dose-dependent effect (MDM2; 0.1 µM to 10 µM): robust MDM2 degradation | MDM2 degradation (MDM2; 10 µM, neo-substrate experiment): ≈ 70% | decrease in MDM2 levels compared to the basal level (MDM2; 10 μΜ for 1 h): over 80% | maximal degradation concentration (Dmax) (MDM2; quantified western blot, 1 nM to 50 µM, n = 2): 1 μΜ | DC50 (MDM2; quantified western blot, 1 nM to 50 µM, n = 2, read-out: half‐maximal degradation concentration (DC50)): 0.09 µM | regenerative effect compared with alendronate ([1]; 0.5 mg kg^−1): results comparable to those of the alendronate‐treated group | recovery in BV/TV compared to the OVX group [1, 2]: 65% | recovery in Tb.N compared to the OVX group [1, 2]: 58% | improvement in BV/TV compared to the Nutlin‐3 group [1, 3]: 56% | improvement in Tb.N compared to the Nutlin‐3 group [1, 3]: 61% | recovery in BMD compared to the OVX group ([1]; 1 mg kg^−1, osmotic pump 28 days): 12% | improvement in BMD compared to the Nutlin‐3 group ([1]; 1 mg kg^−1, same concentration of Nutlin‐3): 13% | bone histology (H&E staining) versus OVX group ([1]; tibia and femur tissues): newly formed trabecular structures were observed
